How the values were obtained:
H1355 T16 = assay: MTS cell viability assay, H1355 T16 resistant variant vs H1355 Parental; format: cell-based, human; conditions: H1355 T16 vs H1355 Parental
Method: NSCLC lines were treated with paclitaxel+carboplatin combination, given in a ˜2:3 wt/wt ratio, to mirror the clinical dosage values of ˜225 mg/m2 and ˜330 mg/m2, paclitaxel and carboplatin respectively. Note that considering the molecular weights of the two drugs, this translates to approximately a 1 to 3.4 molar ratio. Drugs were given in cycles, following a drug on/drug off treatment scheme. Each cycle consisted of 4-5 days of drug treatment and drug-free culturing for about 1-2 weeks or more to allow the surviving cells to repopulate the plate. […] Untreated parental cells were simultaneously maintained at all times for comparison. Cell viability was assessed in 96-well plates using standard MTS assays (Promega). Treatment duration in MTS assays was 4 days. Drugs were tested in two- or four-fold serial dilutions, totaling 8 different drug concentrations, with 8 replicates per concentration. Response was validated in multiple replicate plates (n≥3).
Cell viability was assessed by standard MTS assays using Promega's CellTiter reagents. Eight drug concentrations given as two- or four-fold dilutions were tested for each chemotherapeutic agent. In addition, each experiment contained eight replicates per concentration and the entire assay was performed in multiple replicates (n≥3).

[1] = tested on: H3K4me3 demethylase activity; assay: Histone demethylase activity in tumor lysates by ELISA (H3K4me3); format: in vivo; conditions: H1299 T18 xenografts, drug-treated vs vehicle
From the text: (§1) To evaluate whether the targeted KDM enzymatic activity was reduced in the JmjC inhibitor-treated tumors in vivo, the inventors measured histone demethylase activity in drug-treated and vehicle-control tumor lysates by ELISA. […] Altogether, the results confirmed reduction of the targeted KDM enzymatic activity with cytostatic/cytotoxic effects in JmjC inhibitor-treated chemoresistant xenografts.

[2] = tested on: H3K27me3 demethylase activity; assay: Histone demethylase activity in tumor lysates by ELISA (H3K27me3); format: in vivo; conditions: H1299 T18 xenografts, drug-treated vs vehicle
From the text: as §1

H1299 Parental cells = assay: Microarray gene expression after 24 h treatment, H1299 Parental cells; format: cell-based, human; conditions: 0.2 μM JIB-04 or 1 μM GSK-J4, fold changes ≥1.5, P ≤0.05
Method: Gene expression profiling was performed using Illumina HumanWG-6 V3 BeadArrays (for NSCLC patient tumors) or Illumina HumanHT-12 V4 BeadArrays (for cell lines and xenografts). Cell line and xenograft microarrays included biological replicates (Cell lines: 5 for parental, 3 for most resistant variant, 2 for each intermediate resistance time-point; Xenografts: 3 tumors each for parental and resistant group). Data were pre-processed using the R package mbcb for background correction (Ding et al., 2008), then log-transformed and quantile-normalized with the R package preprocessCore or using in-house MATRIX software (MicroArrayTRansformation In eXcel). Microarray data can be found under GEO accession GSE77209.
Log ratios, unpaired t-test p values and color-coded heat maps were obtained using MATRIX. For comparisons involving progressively resistant cell line series, analyses were performed using R package by fitting linear regression model on gene expression data against the log transformed IC50 values as measures of drug response. We fitted beta-uniform mixture model to a set of p-values using the R package ClassComparison. Genes with p-values below the FDR cutoff of 0.1 were considered statistically significant. For xenograft data, differential gene expression analysis was performed by student's t-test. […]

H1299 = assay: Clonogenic survival with ionizing radiation, H1299; format: cell-based, Human; conditions: 16 nM JIB-04; for radiosensitization (clonogenic survival): drug 4 h before IR, 175 nM GSK-J4
Method: Cells were serially diluted to appropriate concentrations and plated into 60-mm dish in triplicate for 4 h. Then cells were treated with the indicated drugs, and irradiated 4 hours later with graded doses of radiation for concurrent treatment or irradiated and 4 hours later the drugs added for post-treatment. All cells were irradiated at room temperature in ambient air using a 137Cs source (Mark 1-68 irradiator, JL Shepherd & Associated). Surviving colonies were stained with crystal violet approximately 10 to 14 days later and colonies formed with more than 50 cells were counted. Clonogenic fraction of irradiated cells was normalized to the plating efficiency of unirradiated controls. The data are presented as the mean±SD. The curve S=e^−(αD+βD2) was fitted to the experimental data using a least square fit algorithm using the program Sigma Plot 11.0 (Systat Software, Inc.).

γH2AX foci = assay: Immunofluorescence DSB repair kinetics, γH2AX foci; format: cell-based, Human
Method: (§2) NSCLCs were seeded onto Lab-Tek II Chamber Slides (Thermo Fisher) and 24 hours later pretreated with JIB-04 or DMSO for 4 h. Then cells were exposed to a total dose of 2 Gy (γH2AX and 53BP1) or 10 Gy (RAD-51 and DNAPKcs p-T2609) radiation. For knockdown and overexpression experiments H1299 cells were transfected using the Amaxa Nucleofector; program X-005. Specifically, 3×10^6 were transfected with siRNA duplexes targeting JMJD2A, JMJD2B, Jarid1A, Jarid1b, scrambled siRNA (250 nM final concentration) or expression vectors pCMVHA-JMJD2A, pCMVHA-JMJD2B, pCMVHA-Jarid1A, pCMVHA-Jarid1B, PC-2 for 72 hours, followed by quantification of expression or irradiation. Then, cells were fixed in 4% formaldehyde/PBS for 15 min, permeabilized with 0.5% Triton X-100 for 15 min on ice, and blocked with 5% bovine serum albumin in PBS for 1 h. The slides were incubated with an antibody against phospho-Histone γH2AX (1:1000, 3 h at room temperature), 53BP1 (1:500, 3 h at room temperature), Rad-51 (1:500, 48 hs 4° C.) or DNAPKcs p-T2609 (1:500, 48 hs 4° C.). Alexa Fluor 488-conjugated goat anti-Rabbit, […] goat anti-mouse or rhodamine red-conjugated goat anti-mouse secondaries antibodies were used (1:1000, 1 h at room temperature). Slides were mounted in a Vectashield mounting medium containing 4′,6-diamidino-2-phenylindole (DAPI). Cells were analyzed on a Zeiss upright fluorescent microscope.

53BP1 foci = assay: Immunofluorescence DSB repair kinetics, 53BP1 foci; format: cell-based, Human; conditions: for 53BP1 foci resolution: H1299 and A549, 4 h pretreatment, then IR
Method: as §2

## CCOC(=O)CCNc1cc(N2CCc3ccccc3CC2)nc(-c2ccccn2)n1 [GSK-J4]
H1355 T16
  sensitivity of resistant variant compared to parental cells: higher sensitivity
[1]
  H3K4me3 demethylase activity in tumor lysates: without reducing H3K4me3 or H3K9me3 demethylase activity
[2]
  H3K27me3 demethylase activity in tumor lysates: significantly inhibited H3K27me3 demethylase activity
H1299 Parental cells
  gene expression changes (total probes): 224 probes
H1299
  radiosensitization (clonogenic survival): failed to radiosensitize
γH2AX foci; H1299 and A549, 4 h pretreatment, then IR
  defects in γH2AX foci resolution: not observed
53BP1 foci
  53BP1 foci resolution: not observed

## Clc1ccc(N/N=C(\c2ccccc2)c2ccccn2)nc1 [JIB-04]
H1355 T16
  sensitivity of resistant variant compared to parental cells: higher sensitivity
H1355 T16; SR = [IC50 of Parental]/[IC50 of Resistant]
  H1355 T16 SR (Selectivity Ratio): 2.8
[1]
  H3K4me3 demethylase activity in tumor lysates: significantly inhibited
[2]
  H3K27me3 demethylase activity in tumor lysates: significantly inhibited
H1299 Parental cells
  gene expression changes (total probes): 519 probes
H1299
  radiosensitization, JIB-04 before IR vs 4 h post-irradiation: significantly more robust when administering JIB-04 first
  radiosensitization (clonogenic survival): had a radiosensitization/radioenhancement effect
γH2AX foci; H1299 and A549, 4 h pretreatment with colony formation IC50 dose, then IR
  γH2AX foci remaining unresolved at late time points: > 30%
γH2AX foci; normal HBEC30KT cells, 500 nM JIB-04, 2 Gy
  γH2AX foci formation and resolution: no defects
γH2AX foci; prostate cancer cell line LNCap, JIB-04 and IR, data not shown
  γH2AX foci resolution: defects in γH2AX foci resolution
53BP1 foci
  53BP1 foci resolution: defective
53BP1 foci; HCC-95 cells, 35 nM JIB-04 4 h, 2 Gy
  53BP1 foci formation and resolution: delayed 53BP1 foci formation and resolution
